In patent publication US20260216138A1, “IDENTIFICATION OF OTUD7B INHIBITOR 7BI AND ITS APPLICATION IN REDUCING GROWTH OF NSCLC AND LEUKEMIA CELLS” (The University of North Carolina at Chapel Hill, priority 2023, published 2026):

Key:
[1] = system: OTUD7B; assay: OTUD7B protein levels by immunoblot; assay type: cell-based; conditions: 16 hrs
Protocol: (§1) Cells were harvested and lysed in EBC buffer (50 mM Tris pH 7.5, 120 mM NaCl, 0.5% NP-40) supplemented with protease inhibitor cocktail (EDTA-free, mini-tablet) (Bimake) and phosphatase inhibitor cocktail (Bimake) by rotating in the cold room for 10 min followed by high-speed centrifugation at 4° C. The protein concentrations in supernatants of whole cell lysates were measured by NanoDrop OneC using the Bio-Rad Bradford protein assay reagent. Equal amounts of whole cell lysates were resolved on SDS-PAGE and immunoblotted with indicated antibodies. For immunoprecipitation analysis, 1 mg of total cell lysate was incubated with the indicated beads for 3-4 hr at 4° C. The recovered immuno-complexes were washed thoroughly three times with NETN buffer (20 mM Tris, pH 8.0, 100 mM NaCl, 1 mM EDTA and 0.5% NP-40) before being resuspended in SDS sample buffer and resolved on SDS-PAGE and immunoblotted with indicated antibodies.

[2] = system: GβL binding with mTORC2 components (Sin1, Rictor, mTOR); assay: GβL binding with mTORC2 components (HA-IP, HEK293 cells); assay type: cell-based; conditions: indicated doses of 7Bi, 16 hrs
Protocol: as §1

[3] = target: T1, USP21 (Homo sapiens, UniProt Q9UK80); assay: In vitro USP21 deubiquitination assay, K11-linked di-ub cleavage; assay type: biochemical; conditions: 80 nM USP21, 10 min
T1 construct: USP21 (residues 196-565); GST (N, cleaved yes); made in house; host or cells: E. coli BL21-Codon Plus (DE3)-RIL
T1 sequence (Q9UK80 196-565): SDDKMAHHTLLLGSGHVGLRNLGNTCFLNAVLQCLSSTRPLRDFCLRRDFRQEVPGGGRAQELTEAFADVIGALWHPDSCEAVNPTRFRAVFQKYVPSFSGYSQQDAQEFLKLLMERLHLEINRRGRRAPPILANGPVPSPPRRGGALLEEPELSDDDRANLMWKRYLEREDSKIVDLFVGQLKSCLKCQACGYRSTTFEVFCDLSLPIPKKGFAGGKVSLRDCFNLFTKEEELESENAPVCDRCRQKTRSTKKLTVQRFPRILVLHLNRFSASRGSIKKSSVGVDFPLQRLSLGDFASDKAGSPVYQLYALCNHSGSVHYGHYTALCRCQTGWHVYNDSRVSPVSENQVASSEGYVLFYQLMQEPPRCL
Excerpt: (§2) OTUD7B (residues 56-446), OTUD7A (residues 1-462), USP21 (residues 196-565), and USP9X (residues 1551-1970) proteins were expressed in E. Coli BL21-Codon Plus (DE3)-RIL cells. Through an N-terminal GST tag, the DUBs were purified by affinity chromatography using glutathione sepharose 4B (GS4B) resin. Following the liberation of the DUB from the GST tag. the DUBs were subjected to size exclusion chromatography (SEC). To form the K11-linked di-ub, individual ubiquitins (K11R-substituted donor Ub and ΔGG acceptor ubiquitin) were purified and fluorescently-labeled on an N-terminal cysteine using either Cy3- (donor) or Cy5-maleimide (acceptor). The different ubiquitins were then added to a mixture containing UBA1, UBE2S, and MgATP to form di-ub. After an overnight incubation at room temperature, UBE2S was removed by cation-exchange chromatography and the di-ub was purified by SEC. These proteins were used to monitor DUB activity in the presence or absence of the various inhibitors. The inhibitors were incubated with DUBs in a reaction buffer (20 mM Hepes pH=8.0, 200 mM NaCl, 0.25 mg/mL BSA and 0.005% Tween-20) for 5 min at room temperature and then 0.5 uM fluorescently-labeled di-ub (K11-linked) was added to start the reaction. 5×SDS-PAGE loading buffer was used to quench the reaction at the indicated time point. […] Mono-ubiquitin was quantified to generate an IC50 value. […]

[4] = target: T2, USP9X (Homo sapiens, UniProt Q93008); assay: In vitro USP9X deubiquitination assay, K11-linked di-ub cleavage; assay type: biochemical
T2 construct: USP9X (residues 1551-1970); GST (N, cleaved yes); made in house; host or cells: E. coli BL21-Codon Plus (DE3)-RIL
T2 sequence (Q93008 1551-1970): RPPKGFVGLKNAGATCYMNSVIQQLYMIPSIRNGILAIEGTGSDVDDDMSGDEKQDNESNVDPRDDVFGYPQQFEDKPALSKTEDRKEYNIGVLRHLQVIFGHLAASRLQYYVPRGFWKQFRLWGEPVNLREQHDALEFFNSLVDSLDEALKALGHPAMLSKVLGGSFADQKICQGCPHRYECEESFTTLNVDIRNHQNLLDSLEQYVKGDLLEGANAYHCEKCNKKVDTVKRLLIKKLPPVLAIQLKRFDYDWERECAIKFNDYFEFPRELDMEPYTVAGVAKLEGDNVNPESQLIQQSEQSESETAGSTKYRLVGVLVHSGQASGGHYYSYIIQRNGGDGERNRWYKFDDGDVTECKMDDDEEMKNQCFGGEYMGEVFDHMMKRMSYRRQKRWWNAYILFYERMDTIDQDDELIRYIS
Excerpt: as §2

For `Cc1cc(NC(=O)c2cnn(C)c2C(=O)Nc2cc(C)nn2C2CCCC2)n(C2CCCC2)n1` [7Bi], which OTUD7B protein levels ([1]; A549 cells) is on record?
Its OTUD7B protein levels is “did not significantly affect OTUD7B protein levels”.

What about the OTUD7B protein levels ([1]; HEK293 cells) of the same molecule?
The OTUD7B protein levels was “did not significantly affect OTUD7B protein levels”.

What about the “GβL binding with mTORC2 components (Sin1, Rictor, mTOR)” value [2] of the same molecule?
Its value is “attenuated GβL binding with mTORC2 components”.

What about the “inhibition of USP21” value [3] of the same molecule?
Its value is “failed to inhibit”.

What about the “inhibition of USP9X” value [4] of the same molecule?
The value was “failed to inhibit”.
